Reference: US20260262641A1 (priority 2023, published 2026)

Assays:
Type in all cases: in vivo
[1] = system: ground pearl (Margarodes spp); test: Field trial in kikuyu turf, control of ground pearl, Sydney (Example 2); conditions: for NDVI, Pre-spray: Pre-spray (baseline), kikuyu turf, Greenseeker; for Ground pearls/plot, Adults, Pre-spray / Ground pearls/plot, Eggs, Pre-spray / Ground pearls/plot, Adults, 56 DAA3 / Ground pearls/plot, Eggs, 56 DAA3 / NDVI, 56 DAA3: sc; for Ground pearls/plot, Adults, 56 DAA3 / Ground pearls/plot, Eggs, 56 DAA3: 200 g/ha; for Ground pearls/plot, Adults, 56 DAA3 / Ground pearls/plot, Eggs, 56 DAA3 / NDVI, 56 DAA3: 1344 h
Method: A field trial was conducted in kikuyu turf, to evaluate fenpyroximate for control of ground pearl (Margarodes spp). The trial was located at Sydney University, New South Wales (−33.888, 151.188), in an area with a known infestation of ground pearl.
All treatments were applied using a hand boom fitted with XR11004 nozzles, in a spray volume of 430 L/ha.
The ground pearl density by species was assessed by sampling 20 cores per plot and recording the number of eggs and adults, and Normalized Difference Vegetation Index (NDVI) was assessed 56 days after the third application using a Greenseeker.
(§1) All data was statistically analyzed using analysis of variance and Fisher's protected least significant different test (Fishers LSD). The level of significance for all tests was P<0.05.

[2] = system: ground pearl (Margarodes spp); test: Field trial in kikuyu turf, control of ground pearl, Robina (Example 6); conditions: for Ground pearls/plot, Adults, Pre-spray / Ground pearls/plot, Eggs, Pre-spray: Pre-spray (baseline), 20 cores per plot; for density of ground pearl eggs and adults (in words) / turf vigor (in words): versus untreated, P<0.05
Method: A field trial was conducted in kikuyu turf, to evaluate fenpyroximate for control of ground pearl (Margarodes spp). The trial was located at Robina, Queensland (−28.069442, 153.401817), in an area with a known infestation of ground pearl.
All treatments were applied using a hand boom fitted with XC08 nozzles, in a spray volume of 443 L/ha.
The ground pearl density by species was assessed prior to the first application and again 21 days after the third application by sampling 20 cores per plot and recording the number of eggs and adults. Turf vigor was assessed on a 0 to 10 rating scale (0=dead; 10=best quality/color) prior to the first application and 42 days after the third application.
as §1

[3] = system: ground pearl (Margarodes spp); test: as above; conditions: sc
[4] = versus untreated, P<0.05, with PE 6200

O=[N+]([O-])NC1=NCCN1Cc1ccc(Cl)nc1 [Kohinor 350 SC, Imidacloprid]
NDVI, Pre-spray [1]: 8.25 | Ground pearls/plot, Adults, Pre-spray [1]: 10.5 a ground pearls/plot | Ground pearls/plot, Eggs, Pre-spray [1]: 9.0 a ground pearls/plot | Ground pearls/plot, Adults, 56 DAA3 [1]: 13.8 a ground pearls/plot | Ground pearls/plot, Eggs, 56 DAA3 [1]: 12.5 cd ground pearls/plot | NDVI, 56 DAA3 [1]: 7.8 | density of ground pearl eggs (in words) [1, 4]: did not reduce | Turf vigor (0-10), Pre-spray [2]: 5.1 | Ground pearls/plot, Adults, Pre-spray [2]: 5.7 ground pearls/plot | Ground pearls/plot, Eggs, Pre-spray [2]: 2.0 ground pearls/plot | density of ground pearl eggs and adults (in words) [2]: significantly reduced | turf vigor (in words) [2]: significantly improved | Turf vigor (0-10), 56 DAA3 [3]: 5.9 a

CN1COCN(Cc2cnc(Cl)s2)/C1=N\[N+](=O)[O-] [Meridian, Thiamethoxam]
NDVI, Pre-spray [1]: 7.5 | Ground pearls/plot, Adults, Pre-spray [1]: 15.5 a ground pearls/plot | Ground pearls/plot, Eggs, Pre-spray [1]: 7.8 a ground pearls/plot | Ground pearls/plot, Adults, 56 DAA3 [1]: 9.8 a ground pearls/plot | Ground pearls/plot, Eggs, 56 DAA3 [1]: 8.5 abc ground pearls/plot | NDVI, 56 DAA3 [1]: 7.5 | density of ground pearl adults (in words) [1, 4]: significantly reduced | density of ground pearl eggs (in words) [1, 4]: significantly reduced | Turf vigor (0-10), Pre-spray [2]: 5.1 | Ground pearls/plot, Adults, Pre-spray [2]: 6.0 ground pearls/plot | Ground pearls/plot, Eggs, Pre-spray [2]: 3.0 ground pearls/plot | density of ground pearl eggs and adults (in words) [2]: significantly reduced | turf vigor (in words) [2]: significantly improved | Turf vigor (0-10), 56 DAA3 [3]: 6.0 a
